According to patent US20260262643A1, “HERBICIDAL BENZOXAZINES” (FMC CORPORATION, priority 2022, published 2026):
Read-outs that look alike come from different tables or passages of the source.

Experiments:
soybean = experiment: Test A postemergence; type: in vivo, Glycine max; details: Glycine max, post-emergence, 240 h, read-out: Plant response rating, Soybean; for plant injury at 500 g/ha: 500 g ai/ha
How it was run: (§1)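 Plants were grown in loam and sand and treated preemergence or postemergence (one- to two-leaf stage, 2–10 cm) with compound in solvent plus surfactant. Response was scored against untreated controls after 10 greenhouse days, where 0 means no effect and 100 complete control.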

kochia = experiment: Test A postemergence; type: in vivo, Bassia scoparia; details: Bassia scoparia, post-emergence, 240 h, read-out: Plant response rating, Kochia; for pest or weed control at 125 g/ha: 125 g ai/ha; for pest or weed control at 500 g/ha: 500 g ai/ha
How it was run: as §1

ragweed [1] = experiment: Test A preemergence; type: in vivo, Ambrosia artemisiifolia; details: Ambrosia artemisiifolia, pre-emergence, 240 h, read-out: Plant response rating, Ragweed; for pest or weed control at 125 g/ha: 125 g ai/ha, visual injury after 10 days, 0 to 100 scale, 0 is no effect, 100 is complete control; for pest or weed control at 500 g/ha: 500 g ai/ha, 0 to 100 scale (0 no effect, 100 complete control), 10 days
How it was run: as §1

horseweed = experiment: Test A postemergence; type: in vivo, Erigeron canadensis; details: Erigeron canadensis, post-emergence, 240 h, read-out: Plant response rating, Horseweed; for pest or weed control at 125 g/ha: 125 g ai/ha; for pest or weed control at 500 g/ha: 500 g ai/ha
How it was run: as §1

ryegrass, Italian = experiment: Test A preemergence; type: in vivo, Lolium multiflorum; details: Lolium multiflorum, pre-emergence, 240 h, read-out: Plant response rating, Ryegrass, Italian; for pest or weed control at 125 g/ha: 125 g ai/ha, visual injury after 10 days, 0 to 100 scale, 0 is no effect, 100 is complete control; for pest or weed control at 500 g/ha: 500 g ai/ha, 0 to 100 scale (0 no effect, 100 complete control), 10 days
How it was run: as §1

pigweed, palmer [2] = experiment: Test A postemergence; type: in vivo, Amaranthus palmeri; details: Amaranthus palmeri, post-emergence, 240 h, read-out: Plant response rating, Pigweed, Palmer; for pest or weed control at 500 g/ha: 500 g ai/ha
How it was run: as §1

barnyardgrass = experiment: Test B flooded paddy test; type: in vivo, Echinochloa crus-galli; details: Echinochloa crus-galli, 312 h, 250 g ai/ha, Flood, 13 days, 0 to 100 scale (0 no effect, 100 complete control); read-out: Plant response rating, Barnyardgrass
How it was run: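 2-leaf stage; pots flooded 3 cm over soil; compound dosed into paddy water; depth kept constant. Greenhouse, 13 d. Visual rating vs controls, 0 (no effect)–100 (complete control). Dash = no result.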

wheat = experiment: Test A preemergence; type: in vivo, Triticum aestivum; details: Triticum aestivum, pre-emergence, 240 h, read-out: Plant response rating, Wheat; for plant injury at 125 g/ha: 125 g ai/ha, visual injury after 10 days, 0 to 100 scale, 0 is no effect, 100 is complete control; for plant injury at 500 g/ha: 500 g ai/ha, 0 to 100 scale (0 no effect, 100 complete control), 10 days
How it was run: as §1

corn [3] = experiment: Test A preemergence; type: in vivo, Zea mays; details: Zea mays, pre-emergence, 240 h; for Corn plant response rating (crop injury, 0 = no effect, 100 = complete kill) at 125 g/ha: 125 g ai/ha, visual injury after 10 days, 0 to 100 scale, 0 is no effect, 100 is complete control; for Corn plant response rating (crop injury, 0 = no effect, 100 = complete kill) at 500 g/ha: 500 g ai/ha, 0 to 100 scale (0 no effect, 100 complete control), 10 days
How it was run: as §1

ragweed [4] = experiment: Test A postemergence; type: in vivo, Ambrosia artemisiifolia; details: Ambrosia artemisiifolia, post-emergence, 240 h, read-out: Plant response rating, Ragweed; for pest or weed control at 500 g/ha: 500 g ai/ha
How it was run: as §1

foxtail, giant [5] = experiment: Test A postemergence; type: in vivo, Setaria faberi; details: Setaria faberi, post-emergence, 240 h, read-out: Plant response rating, Foxtail, Giant; for pest or weed control at 125 g/ha: 125 g ai/ha; for pest or weed control at 500 g/ha: 500 g ai/ha
How it was run: as §1

foxtail, giant [6] = experiment: Test A preemergence; type: in vivo, Setaria faberi; details: Setaria faberi, pre-emergence, 240 h, read-out: Plant response rating, Foxtail, Giant; for pest or weed control at 125 g/ha: 125 g ai/ha, visual injury after 10 days, 0 to 100 scale, 0 is no effect, 100 is complete control; for pest or weed control at 500 g/ha: 500 g ai/ha, 0 to 100 scale (0 no effect, 100 complete control), 10 days
How it was run: as §1

corn [7] = experiment: Test A postemergence; type: in vivo, Zea mays; details: Zea mays, post-emergence, 240 h; for Corn plant response rating (crop injury, 0 = no effect, 100 = complete kill) at 125 g/ha: 125 g ai/ha; for Corn plant response rating (crop injury, 0 = no effect, 100 = complete kill) at 500 g/ha: 500 g ai/ha
How it was run: as §1

pigweed, palmer [8] = experiment: Test A preemergence; type: in vivo, Amaranthus palmeri; details: Amaranthus palmeri, pre-emergence, 240 h, read-out: Plant response rating, Pigweed, Palmer; for pest or weed control at 125 g/ha: 125 g ai/ha, visual injury after 10 days, 0 to 100 scale, 0 is no effect, 100 is complete control; for pest or weed control at 500 g/ha: 500 g ai/ha, 0 to 100 scale (0 no effect, 100 complete control), 10 days
How it was run: as §1

[9] = 125 g ai/ha, postemergence, 10 days, visual injury, 0 to 100 scale (0 no effect, 100 complete control)
[10] = postemergence, 10 days, visual injury, 0 to 100 scale (0 no effect, 100 complete control)

Compound | pest or weed control at 125 g/ha (kochia; [10]) [%] | pest or weed control at 125 g/ha (ragweed [1]) [%] | pest or weed control at 500 g/ha (ragweed [1]) [%] | pest or weed control at 125 g/ha (horseweed; [10]) [%] | pest or weed control at 125 g/ha (ryegrass, Italian) [%] | pest or weed control at 500 g/ha (ryegrass, Italian) [%] | pest or weed control at 250 g/ha (barnyardgrass) [%] | plant injury at 125 g/ha (wheat) [%] | plant injury at 500 g/ha (wheat) [%] | Corn plant response rating (crop injury, 0 = no effect, 100 = complete kill) at 125 g/ha (corn [3]) [%] | Corn plant response rating (crop injury, 0 = no effect, 100 = complete kill) at 500 g/ha (corn [3]) [%] | pest or weed control at 125 g/ha (foxtail, giant [5]; [10]) [%] | pest or weed control at 125 g/ha (foxtail, giant [6]) [%] | pest or weed control at 500 g/ha (foxtail, giant [6]) [%] | Corn plant response rating (crop injury, 0 = no effect, 100 = complete kill) at 125 g/ha (corn [7]; [10]) [%] | pest or weed control at 125 g/ha (pigweed, palmer [8]) [%] | pest or weed control at 500 g/ha (pigweed, palmer [8]) [%] | also measured
COc1ccc(-n2cncn2)cc1C(=O)N1C[C@H](C)Oc2c(C)cccc21 [Compound 63, [(2S)-2,3-Dihydro-2,8-dimethyl-4H-1,4-benzoxazin-4-yl][2-methoxy-5-(1H-1,2,4-triazol-1-yl)phenyl]methanone] | 10 | 0 | 40 | 20 | 90 | 100 | 0 | 40 | 90 | 60 | 80 | 90 | 100 | 100 | 80 | 40 | 90 | plant injury at 125 g/ha (soybean; [9]): 100%; plant injury at 500 g/ha (soybean; Postemergence, 0 to 100 scale): 100%; pest or weed control at 500 g/ha (kochia; Postemergence, 0 to 100 scale): 20%; pest or weed control at 500 g/ha (horseweed; Postemergence, 0 to 100 scale): 40%; pest or weed control at 125 g/ha (pigweed, palmer [2]; [9]): 30%; pest or weed control at 500 g/ha (pigweed, palmer [2]; Postemergence, 0 to 100 scale): 40%; pest or weed control at 125 g/ha (ragweed [4]; [9]): 40%; pest or weed control at 500 g/ha (ragweed [4]; Postemergence, 0 to 100 scale): 40%; pest or weed control at 500 g/ha (foxtail, giant [5]; Postemergence, 0 to 100 scale): 90%; Corn plant response rating (crop injury, 0 = no effect, 100 = complete kill) at 500 g/ha (corn [7]; Postemergence, 0 to 100 scale): 80%
Cc1ccc(-n2cnc(C(C)C)n2)cc1C(=O)N1C[C@H](C)Oc2c(Cl)cccc21 [Compound 73, [(2S)-8-Chloro-2,3-dihydro-2-methyl-4H-1,4-benzoxazin-4-yl][2-methyl-5-[3-(1-methylethyl)-1H-1,2,4-triazol-1-yl]phenyl]methanone] | 90 | 30 | 90 | 30 | 90 | 100 | 45 | 20 | 80 | 60 | 80 | 80 | 100 | 100 | 70 | 100 | 100 | plant injury at 500 g/ha (soybean; [10]): 100%; pest or weed control at 500 g/ha (kochia; [10]): 100%; pest or weed control at 500 g/ha (horseweed; [10]): 50%; pest or weed control at 500 g/ha (pigweed, palmer [2]; [10]): 90%; pest or weed control at 500 g/ha (ragweed [4]; [10]): 80%; pest or weed control at 500 g/ha (foxtail, giant [5]; [10]): 90%; Corn plant response rating (crop injury, 0 = no effect, 100 = complete kill) at 500 g/ha (corn [7]; [10]): 70%
